Source: patent publication US20170121344A1 (Siga Technologies, Inc., priority 2009, published 2017)
Like-named read-outs stand apart in the source and are kept apart here.

Test system: Dengue-2 (Strain New Guinea C)
Test: Viral yield assay against Dengue-2 in Vero cells
Format: cell-based, Dengue virus
Conditions: Dengue virus
In short: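 Yield reduction, Vero; MOI 0.1; compound vs DMSO; 37° C; harvest 48 h p.i.; titer on Vero; EC50 fitted. Other serotypes run the same way.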

[1] = DENV2, viral yield assay, Vero cells, MOI 0.1, 48 hours post infection, read-out: Activity (EC50 in μM) DENV-2
[2] = Vero cells, MOI 0.1, harvested 48 hours post infection, read-out: Activity (EC50 class) against Dengue-2 Virus in Vero cells
[3] = Vero, 48 h, read-out: Activity (EC50 class) against Dengue-2 Virus in Vero cells

SMILES | EC50 [1] | EC50 [2] | also measured
Nc1c(C(=O)Nc2ccccc2Br)sc2nc(-c3ccncc3)ccc12 [Compound 466, 3-amino-N-(2-bromophenyl)-6-(4-pyridyl)thieno[2,3-b]pyridine-2-carboxamide] | 5 to 25 µM |  | 
Nc1c(C(=O)Nc2cc(F)ccc2F)sc2nc(-c3cc(Cl)ccc3Cl)ccc12 [Compound 629, 3-amino-6-(2,5-dichlorophenyl)-N-(2,5-difluorophenyl)thieno[2,3-b]pyridine-2-carboxamide] | < 5 µM |  | 
Cc1ccc(C)c(NC(=O)c2sc3nc(-c4ccc5c(c4)OCO5)ccc3c2N)c1 [Compound 588, 3-amino-6-(1,3-benzodioxol-5-yl)-N-(2,5-dimethylphenyl)thieno[2,3-b]pyridine-2-carboxamide] | < 5 µM |  | 
CN(C)c1ccnc2sc(C(=O)NCc3ccccc3)c(N)c12 [Compound 77, 3-Amino-4-dimethylamino-thieno[2,3-b]pyridine-2-carboxylic acid benzylamide] |  | 5 to 25 µM | 
CCOC(=O)c1c(NC(=O)c2sc3nc4c(cc3c2N)CN(C)CC4)sc2c1CCCC2 [Compound 57, 2-[(3-Amino-6-methyl-5,6,7,8-tetrahydro-thieno[2,3-b][1,6]naphthyridine-2-carbonyl)-amino]-4,5,6,7-tetrahydro-benzo[b]thiophene-3-carboxylic acid ethyl ester] |  | < 5 µM | 
Nc1c(C(=O)Nc2ccc(Br)cc2)sc2nc(-c3ccncc3)ccc12 [Compound 416, 3-amino-N-(4-bromophenyl)-6-(4-pyridyl)thieno[2,3-b]pyridine-2-carboxamide] | < 5 µM |  | 
Nc1c(C(=O)Nc2ccc(Cl)cc2)sc2nc(-c3ccc4c(c3)OCO4)ccc12 [Compound 601, 3-amino-6-(1,3-benzodioxol-5-yl)-N-(4-chlorophenyl)thieno[2,3-b]pyridine-2-carboxamide] | < 5 µM |  | 
COc1ccc(Cl)cc1NC(=O)c1sc2nc(-c3ccc(C)cc3)ccc2c1N [Compound 641, 3-amino-N-(5-chloro-2-methoxy-phenyl)-6-(p-tolyl)thieno[2,3-b]pyridine-2-carboxamide] | < 5 µM |  | 
Nc1cnc2sc(C(=O)Nc3nnc(-c4ccccc4)s3)c(N)c2c1 [Compound 290, 3,5-diamino-N-(5-phenyl-1,3,4-thiadiazol-2-yl)thieno[2,3-b]pyridine-2-carboxamide] | < 5 µM |  | 
Cc1cc(C)c2c(N)c(C(=O)NC34CC5CC(CC(C5)C3)C4)sc2n1 [Compound 122, 3-Amino-4,6-dimethyl-thieno[2,3-b]pyridine-2-carboxylic acid adamantan-1-ylamide] |  | > 25 µM | 
Cc1ccccc1NC(=O)c1sc2nc(-c3ccc(F)cc3)ccc2c1N [Compound 610, 3-amino-6-(4-fluorophenyl)-N-(o-tolyl) thieno[2,3-b]pyridine-2-carboxamide] | < 5 µM |  | 
Nc1c(C(=O)Nc2ccc(Br)cc2)sc2ncccc12 [Compound 423, 3-amino-N-(4-bromophenyl)thieno[2,3-b] pyridine-2-carboxamide] | < 5 µM |  | 
COCc1cc(C)nc2sc(C(=O)Nc3cccc(C(F)(F)F)c3)c(N)c12 [Compound 98, 3-Amino-4-methoxymethyl-6-methyl-thieno[2,3-b]pyridine-2-carboxylic acid (3-trifluoromethyl-phenyl)-amide] |  |  | EC50 [3]: 5 to 25 µM
Cc1cc(C)c2c(N)c(C(=O)NCC(=O)O)sc2n1 [Compound 199, [(3-Amino-4,6-dimethyl-thieno[2,3-b]pyridine-2-carbonyl)-amino]-acetic acid] |  | > 25 µM | 
O=C1CN(c2cccc(C(F)(F)F)c2)C(=O)c2sc3nc(-c4cccs4)ccc3c2N1 [Compound 320] | < 5 µM |  | 
Nc1c(C(=O)N2CCC[C@H]2C(=O)O)sc2nc(-c3cccs3)ccc12 [Compound 484, 1-[3-amino-6-(2-thienyl)thieno[2,3-b]pyridine-2-carbonyl]pyrrolidine-2-carboxylic acid] |  |  | EC50 (DENV2, Vero, 48 h, read-out: Activity (EC50 in μM) DENV-2): < 5 µM
Cc1ccc(-c2ccc3c(N)c(C(=O)Nc4cccc(C)c4)sc3n2)cc1 [Compound 644, 3-amino-N-(m-tolyl)-6-(p-tolyl)thieno[2,3-b]pyridine-2-carboxamide] | < 5 µM |  | 
COc1ccc(CNC(=O)c2sc3nc4c(cc3c2N)CN(C)CC4)cc1 [Compound 266, 3-Amino-6-methyl-5,6,7,8-tetrahydro-thieno[2,3-b][1,6]naphthyridine-2-carboxylic acid 4-methoxy-benzylamide] |  | > 25 µM | 
Nc1c(C(=O)Nc2ccc([N+](=O)[O-])cc2)sc2nc3c(c(-c4ccco4)c12)CCC3 [Compound 212, 3-Amino-4-furan-2-yl-6,7-dihydro-5H-cyclopenta[b]thieno[3,2-e]pyridine-2-carboxylic acid (4-nitro-phenyl)-amide] |  | > 25 µM | 

SMILES | EC50 [1] | EC50 [2] | also measured
COc1cccc(-c2ccc3c(N)c(C(=O)Nc4cccc(C)c4C)sc3n2)c1 [Compound 562, 3-amino-N-(2,3-dimethylphenyl)-6-(3-methoxyphenyl)thieno[2,3-b]pyridine-2-carboxamide] | < 5 µM |  | 
COc1ccc(-c2cc(C3CC3)nc3sc(C(N)=O)c(N)c23)cc1 [Compound 7, 3-Amino-6-cyclopropyl-4-(4-methoxy-phenyl)-thieno[2,3-b]pyridine-2-carboxylic acid amide] |  | < 5 µM | 
Nc1c(C(=O)Nc2ccc(Cl)cc2Cl)sc2nc(-c3ccc4c(c3)OCO4)ccc12 [Compound 537, 3-amino-6-(1,3-benzodioxol-5-yl)-N-(2,4-dichlorophenyl)thieno[2,3-b]pyridine-2-carboxamide] | < 5 µM |  | 
COc1ccc(OC)c(NC(=O)c2sc3nc(-c4ccc(OC)c(OC)c4)ccc3c2N)c1 [Compound 518, 3-amino-N-(2,5-dimethoxyphenyl)-6-(3,4-dimethoxyphenyl)thieno[2,3-b]pyridine-2-carboxamide] | < 5 µM |  | 
COCc1cc(C)nc2sc(C(=O)Nc3ccc(C)c(Cl)c3)c(N)c12 [Compound 229, 3-Amino-4-methoxymethyl-6-methyl-thieno[2,3-b]pyridine-2-carboxylic acid (3-chloro-4-methyl-phenyl)-amide] |  | > 25 µM | 
O=C(Nc1ccc(Cl)cc1)c1sc2ncccc2c1OCc1ccc(Cl)c(Cl)c1 [Compound 376, N-(4-chlorophenyl)-3-[(3,4-dichlorophenyl)methoxy]thieno[2,3-b] pyridine-2-carboxamide] | 5 to 25 µM |  | 
CN(C)CC(=O)Nc1c(C(=O)Nc2cccc(C(F)(F)F)c2)sc2nc(-c3cccs3)ccc12 [Compound 308, 3-[[2-(dimethylamino)acetyl]amino]-6-(2-thienyl)-N-[3-(trifluoromethyl)phenyl]thieno[2,3-b]pyridine-2-carboxamide] |  |  | EC50 (DENV2, Vero cells, read-out: Activity (EC50 in μM) DENV-2): < 5 µM
Cc1cc(C)c2c(N)c(C(=O)Nc3cccc4cccnc34)sc2n1 [Compound 121, 3-Amino-4,6-dimethyl-thieno[2,3-b]pyridine-2-carboxylic acid quinolin-8-ylamide] |  | > 25 µM | 
Cc1nc2sc(C(N)=O)c(N)c2c(C)c1CC(=O)c1ccccc1 [Compound 72, 3-Amino-4,6-dimethyl-5-(2-oxo-2-phenyl-ethyl)-thieno[2,3-b]pyridine-2-carboxylic acid amide] |  |  | EC50 [3]: 5 to 25 µM
Cc1ccc2c(N)c(C(=O)Nc3ccc(OC(F)(F)F)cc3)sc2n1 [Compound 457, 3-amino-6-methyl-N-[4-(trifluoromethoxy)phenyl]thieno[2,3-b] pyridine-2-carboxamide] | 5 to 25 µM |  | 
CC1=NN(C(=O)c2sc3nc(-c4cccs4)cc(C(F)(F)F)c3c2C)C(O)(C(F)(F)F)C1 (centres unmarked) [Compound 387, [5-hydroxy-3-methyl-5-(trifluoromethyl)-4H-pyrazol-1-yl]-[3-methyl-6-(2-thienyl)-4-(trifluoromethyl)thieno[2,3-b]pyridin-2-yl]methanone] | 5 to 25 µM |  | 
CN1CCc2nc3sc(C(=O)Nc4ccc(C(F)(F)F)cc4)c(N)c3cc2C1 [Compound 42, 3-Amino-6-methyl-5,6,7,8-tetrahydro-thieno[2,3-b][1,6]naphthyridine-2-carboxylic acid (4-trifluoromethyl-phenyl)-amide] |  | < 5 µM | 
CC(=O)c1ccc(NC(=O)c2sc3nc4c(c(-c5ccccc5)c3c2N)CN(C)CC4)cc1 [Compound 51, 3-Amino-6-methyl-4-phenyl-5,6,7,8-tetrahydro-thieno[2,3-b][1,6]naphthyridine-2-carboxylic acid (4-acetyl-phenyl)-amide] |  | < 5 µM | 
CCc1nc2c(sc3nc4c(cc32)COC(C)(C)C4)c(=O)n1Cc1ccco1 [Compound 235, 3-Ethyl-2-furan-2-ylmethyl-8,8-dimethyl-8,9-dihydro-2H,6H-7-oxa-11-thia-2,4,10-triaza-benzo[b]fluoren-1-one] |  |  | EC50 [3]: > 25 µM
Cc1cc(C)c2c(N)c(C(=O)Nc3ccc(Br)cc3)sc2n1 [Compound 172, 3-Amino-4,6-dimethyl-thieno[2,3-b]pyridine-2-carboxylic acid (4-bromo-phenyl)-amide] |  |  | EC50 [3]: > 25 µM
CN1CCc2nc3sc(C(=O)Nc4ccccc4)c(N)c3cc2C1 [Compound 48, 3-Amino-6-methyl-5,6,7,8-tetrahydro-thieno[2,3-b][1,6]naphthyridine-2-carboxylic acid phenylamide] |  | < 5 µM | 
CN1CCc2nc3sc(C(=O)Nc4ccc(Cl)cc4)c(N)c3c(-c3ccccc3)c2C1 [Compound 64, 3-Amino-6-methyl-4-phenyl-5,6,7,8-tetrahydro-thieno[2,3-b][1,6]naphthyridine-2-carboxylic acid (4-chloro-phenyl)-amide] |  | < 5 µM | 
Nc1c(C(=O)N(CC(=O)O)c2cccc(C(F)(F)F)c2)sc2nc(-c3cccs3)ccc12 [Compound 326] | < 5 µM |  | 
Nc1c(C(=O)Nc2ccc([N+](=O)[O-])cc2)sc2nc3c(c(-c4ccco4)c12)CCCC3 [Compound 213, 3-Amino-4-furan-2-yl-5,6,7,8-tetrahydro-thieno[2,3-b]quinoline-2-carboxylic acid (4-nitro-phenyl)-amide] |  | > 25 µM | 
